Converted amounts (≈) assume the structure as drawn.

One test concerns Pseudomonas aeruginosa. As to the kind of experiment: Antibacterial activity against Pseudomonas aeruginosa ATCC 27853 by micro broth dilution method. In kind it is functional.
Details: not given
In turn, `CCn1cc(C(=O)O)c(=O)c2cc(F)c(N3CCN(Cc4nc5ccccc5n4Cc4ccc(Cl)cc4Cl)CC3)cc21` gave an MIC of 1 mg/L (≈ 1.64 µM).
For the compound `CCCCCCCCCCCCn1c(CN2CCN(c3cc4c(cc3F)c(=O)c(C(=O)O)cn4CC)CC2)nc2ccccc21`, the MIC is 256 mg/L (≈ 414 µM).
With `O=C(O)c1cn(C2CC2)c2cc(N3CCN(Cc4nc5ccccc5n4Cc4cccc(F)c4)CC3)c(F)cc2c1=O`, it took 16 mg/L (≈ 28.1 µM) to inhibit growth (MIC).

In another test the test system is Cyberlindnera jadinii. In words: Antifungal activity against Candida utilis ATCC 9950 after 24 hrs by micro broth dilution method. The format is functional. The settings on record: Williopsis jadinii, ATCC 9950, 24 h.
Consider `CCn1cc(C(=O)O)c(=O)c2cc(F)c(N3CCN(Cc4nc5ccccc5n4Cc4ccc(Cl)cc4Cl)CC3)cc21`, for which the MIC80 is 0.5 mg/L (≈ 0.822 µM).
Consider `CCCCCCCCCCCCn1c(CN2CCN(c3cc4c(cc3F)c(=O)c(C(=O)O)cn4CC)CC2)nc2ccccc21`, for which the MIC80 is 64 mg/L (≈ 104 µM).
`O=C(O)c1cn(C2CC2)c2cc(N3CCN(Cc4nc5ccccc5n4Cc4cccc(F)c4)CC3)c(F)cc2c1=O` gave an MIC80 of 256 mg/L (≈ 449 µM).

A further test concerns Staphylococcus aureus. As to the kind of experiment: Antibacterial activity against Staphylococcus aureus ATCC 25923 by micro broth dilution method. In kind it is functional.
Details: not given
Compound `CCn1cc(C(=O)O)c(=O)c2cc(F)c(N3CCN(Cc4nc5ccccc5n4Cc4ccc(Cl)cc4Cl)CC3)cc21` returned an MIC of 4 mg/L (≈ 6.57 µM).
On to `CCCCCCCCCCCCn1c(CN2CCN(c3cc4c(cc3F)c(=O)c(C(=O)O)cn4CC)CC2)nc2ccccc21`, for which the MIC is 128 mg/L (≈ 207 µM).
The compound `O=C(O)c1cn(C2CC2)c2cc(N3CCN(Cc4nc5ccccc5n4Cc4cccc(F)c4)CC3)c(F)cc2c1=O` registered an MIC of 256 mg/L (≈ 449 µM).

A further test relates to Aspergillus flavus. In words: Antifungal activity against Aspergillus flavus ATCC 204304 after 24 hrs by micro broth dilution method. The format is functional. Particulars: ATCC 204304, 24 h.
Regarding `CCn1cc(C(=O)O)c(=O)c2cc(F)c(N3CCN(Cc4nc5ccccc5n4Cc4ccc(Cl)cc4Cl)CC3)cc21`, the MIC80 turned out to be 1 mg/L (≈ 1.64 µM).
The same measure, in the same setting: the same measure for `CCCCCCCCCCCCn1c(CN2CCN(c3cc4c(cc3F)c(=O)c(C(=O)O)cn4CC)CC2)nc2ccccc21`: 64 mg/L (≈ 104 µM); for `O=C(O)c1cn(C2CC2)c2cc(N3CCN(Cc4nc5ccccc5n4Cc4cccc(F)c4)CC3)c(F)cc2c1=O`: 16 mg/L (≈ 28.1 µM).

System in another test: not listed separately
In words: Antibacterial activity against Bacillus proteus ATCC 13315 by micro broth dilution method.
Details: not given
The format is functional.
`CCn1cc(C(=O)O)c(=O)c2cc(F)c(N3CCN(Cc4nc5ccccc5n4Cc4ccc(Cl)cc4Cl)CC3)cc21` registered a minimum inhibitory concentration (MIC) of 1 mg/L (≈ 1.64 µM).
Still for that read-out and setting: the figure for `CCCCCCCCCCCCn1c(CN2CCN(c3cc4c(cc3F)c(=O)c(C(=O)O)cn4CC)CC2)nc2ccccc21` is 256 mg/L (≈ 414 µM); for `O=C(O)c1cn(C2CC2)c2cc(N3CCN(Cc4nc5ccccc5n4Cc4cccc(F)c4)CC3)c(F)cc2c1=O` it is 128 mg/L (≈ 225 µM).

A further test has as its system Saccharomyces cerevisiae. In words: Antifungal activity against Saccharomyces cerevisiae ATCC 9763 after 24 hrs by micro broth dilution method. In kind it is functional. The settings on record: ATCC 9763, 24 h.
Take `CCn1cc(C(=O)O)c(=O)c2cc(F)c(N3CCN(Cc4nc5ccccc5n4Cc4ccc(Cl)cc4Cl)CC3)cc21`: the MIC80 is 2 mg/L (≈ 3.29 µM).
With `CCCCCCCCCCCCn1c(CN2CCN(c3cc4c(cc3F)c(=O)c(C(=O)O)cn4CC)CC2)nc2ccccc21`, the MIC80 is 256 mg/L (≈ 414 µM).
For `O=C(O)c1cn(C2CC2)c2cc(N3CCN(Cc4nc5ccccc5n4Cc4cccc(F)c4)CC3)c(F)cc2c1=O`, the MIC80 worked out at 128 mg/L (≈ 225 µM). Against the preceding compound, the MIC80 is about 2-fold lower.

In another test the test system is Escherichia coli. As to the kind of experiment: Antibacterial activity against Escherichia coli JM109 by micro broth dilution method.
Details: not given
In kind it is functional.
For the compound `CCn1cc(C(=O)O)c(=O)c2cc(F)c(N3CCN(Cc4nc5ccccc5n4Cc4ccc(Cl)cc4Cl)CC3)cc21`, the MIC turned out to be 4 mg/L (≈ 6.57 µM).
`CCCCCCCCCCCCn1c(CN2CCN(c3cc4c(cc3F)c(=O)c(C(=O)O)cn4CC)CC2)nc2ccccc21` registered an MIC of 512 mg/L (≈ 829 µM).
On to `O=C(O)c1cn(C2CC2)c2cc(N3CCN(Cc4nc5ccccc5n4Cc4cccc(F)c4)CC3)c(F)cc2c1=O`, for which the lowest concentration to inhibit growth (MIC) was 256 mg/L (≈ 449 µM). Compared with the last compound, the MIC is about 2-fold lower.

A further test relates to Candida albicans. As to the kind of experiment: Antifungal activity against Candida albicans ATCC 10231 after 24 hrs by micro broth dilution method. The format is functional. Particulars: ATCC 10231, 24 h.
Regarding `CCn1cc(C(=O)O)c(=O)c2cc(F)c(N3CCN(Cc4nc5ccccc5n4Cc4ccc(Cl)cc4Cl)CC3)cc21`, the MIC80 is 0.5 mg/L (≈ 0.822 µM).
Regarding `CCCCCCCCCCCCn1c(CN2CCN(c3cc4c(cc3F)c(=O)c(C(=O)O)cn4CC)CC2)nc2ccccc21`, the MIC80 is 128 mg/L (≈ 207 µM). This MIC80 lies about 260-fold higher than the previous one.
As to `O=C(O)c1cn(C2CC2)c2cc(N3CCN(Cc4nc5ccccc5n4Cc4cccc(F)c4)CC3)c(F)cc2c1=O`, the MIC80 came to 64 mg/L (≈ 112 µM).

A further test deals with Escherichia coli. In words: Antibacterial activity against Escherichia coli DH52 by micro broth dilution method. In kind it is functional.
Details: not given
Take `CCn1cc(C(=O)O)c(=O)c2cc(F)c(N3CCN(Cc4nc5ccccc5n4Cc4ccc(Cl)cc4Cl)CC3)cc21`: the MIC came out at 1 mg/L (≈ 1.64 µM).
For `CCCCCCCCCCCCn1c(CN2CCN(c3cc4c(cc3F)c(=O)c(C(=O)O)cn4CC)CC2)nc2ccccc21`, 256 mg/L (≈ 414 µM) was the least that counted as inhibitory (MIC).
With `O=C(O)c1cn(C2CC2)c2cc(N3CCN(Cc4nc5ccccc5n4Cc4cccc(F)c4)CC3)c(F)cc2c1=O`, 256 mg/L (≈ 449 µM) was the least that counted as inhibitory (MIC).

The next test deals with Salmonella enterica. In words: Antibacterial activity against Salmonella enterica ATCC 14028 by micro broth dilution method. In kind it is functional.
Details: not given
Take `CCn1cc(C(=O)O)c(=O)c2cc(F)c(N3CCN(Cc4nc5ccccc5n4Cc4ccc(Cl)cc4Cl)CC3)cc21`: 0.25 mg/L (≈ 0.411 µM) was the least that counted as inhibitory (MIC).
`CCCCCCCCCCCCn1c(CN2CCN(c3cc4c(cc3F)c(=O)c(C(=O)O)cn4CC)CC2)nc2ccccc21`: the lowest concentration to inhibit growth (MIC) was 256 mg/L (≈ 414 µM).
The same measure, in the same setting: the same measure for `O=C(O)c1cn(C2CC2)c2cc(N3CCN(Cc4nc5ccccc5n4Cc4cccc(F)c4)CC3)c(F)cc2c1=O`: 4 mg/L (≈ 7.02 µM).

Another test relates to Bacillus spizizenii. In words: Antibacterial activity against Bacillus subtilis ATCC 6633 by micro broth dilution method. In kind it is functional.
Details: not given
Consider `CCn1cc(C(=O)O)c(=O)c2cc(F)c(N3CCN(Cc4nc5ccccc5n4Cc4ccc(Cl)cc4Cl)CC3)cc21`, for which the MIC was found to be 8 mg/L (≈ 13.1 µM).
On to `CCCCCCCCCCCCn1c(CN2CCN(c3cc4c(cc3F)c(=O)c(C(=O)O)cn4CC)CC2)nc2ccccc21`, for which it took 128 mg/L (≈ 207 µM) to inhibit growth (MIC).
For `O=C(O)c1cn(C2CC2)c2cc(N3CCN(Cc4nc5ccccc5n4Cc4cccc(F)c4)CC3)c(F)cc2c1=O`, the MIC stood at 32 mg/L (≈ 56.2 µM).

Another test has as its system Micrococcus luteus. As to the kind of experiment: Antibacterial activity against Micrococcus luteus ATCC 4698 by micro broth dilution method. The format is functional. Particulars: NCTC 2665.
Regarding `CCn1cc(C(=O)O)c(=O)c2cc(F)c(N3CCN(Cc4nc5ccccc5n4Cc4ccc(Cl)cc4Cl)CC3)cc21`, the MIC came to 0.25 mg/L (≈ 0.411 µM).
Take `CCCCCCCCCCCCn1c(CN2CCN(c3cc4c(cc3F)c(=O)c(C(=O)O)cn4CC)CC2)nc2ccccc21`: it took 256 mg/L (≈ 414 µM) to inhibit growth (MIC).
Regarding `O=C(O)c1cn(C2CC2)c2cc(N3CCN(Cc4nc5ccccc5n4Cc4cccc(F)c4)CC3)c(F)cc2c1=O`, it took 64 mg/L (≈ 112 µM) to inhibit growth (MIC).

System in a further test: not listed separately
As to the kind of experiment: Antifungal activity against Candida mycoderma ATCC 9888 after 24 hrs by micro broth dilution method. The format is functional. Particulars: Candida vini.
Consider `CCn1cc(C(=O)O)c(=O)c2cc(F)c(N3CCN(Cc4nc5ccccc5n4Cc4ccc(Cl)cc4Cl)CC3)cc21`, for which the MIC80 was 1 mg/L (≈ 1.64 µM).
`CCCCCCCCCCCCn1c(CN2CCN(c3cc4c(cc3F)c(=O)c(C(=O)O)cn4CC)CC2)nc2ccccc21`: the MIC80 came out at 128 mg/L (≈ 207 µM).
`O=C(O)c1cn(C2CC2)c2cc(N3CCN(Cc4nc5ccccc5n4Cc4cccc(F)c4)CC3)c(F)cc2c1=O` came in with an MIC80 of 64 mg/L (≈ 112 µM).

The subject of another test is Shigella dysenteriae. As to the kind of experiment: Antibacterial activity against Shigella dysenteriae by micro broth dilution method. In kind it is functional.
Details: not given
For `CCn1cc(C(=O)O)c(=O)c2cc(F)c(N3CCN(Cc4nc5ccccc5n4Cc4ccc(Cl)cc4Cl)CC3)cc21`, the MIC was 2 mg/L (≈ 3.29 µM).
On the same count and under the same terms, the same measure for `CCCCCCCCCCCCn1c(CN2CCN(c3cc4c(cc3F)c(=O)c(C(=O)O)cn4CC)CC2)nc2ccccc21`: 256 mg/L (≈ 414 µM); for `O=C(O)c1cn(C2CC2)c2cc(N3CCN(Cc4nc5ccccc5n4Cc4cccc(F)c4)CC3)c(F)cc2c1=O`: 256 mg/L (≈ 449 µM).

For a further test, the system named is Staphylococcus aureus. In words: Antibacterial activity against methicillin-resistant Staphylococcus aureus N315 by micro broth dilution method. The format is functional.
Details: not given
As for `CCn1cc(C(=O)O)c(=O)c2cc(F)c(N3CCN(Cc4nc5ccccc5n4Cc4ccc(Cl)cc4Cl)CC3)cc21`, the lowest concentration to inhibit growth (MIC) was 0.125 mg/L (≈ 0.205 µM).
Regarding `CCCCCCCCCCCCn1c(CN2CCN(c3cc4c(cc3F)c(=O)c(C(=O)O)cn4CC)CC2)nc2ccccc21`, the MIC worked out at 256 mg/L (≈ 414 µM).
The same measure, in the same setting: the figure for `O=C(O)c1cn(C2CC2)c2cc(N3CCN(Cc4nc5ccccc5n4Cc4cccc(F)c4)CC3)c(F)cc2c1=O` is 8 mg/L (≈ 14 µM).

The record behind these values is ChEMBL document CHEMBL3769303, “Discovery of membrane active benzimidazole quinolones-based topoisomerase inhibitors as potential DNA-binding antimicrobial agents” (Eur J Med Chem, 2016).
